The text below walks through data of the supplement of paper PMC6723410.

The test system of the first experiment is GUMC-403. The experiment is described as follows: viability at highest tested concentration (max response) relative to DMSO (% of DMSO control); higher = less cytotoxic. To be noted: library / dose series: MIPE library, 11-point 1:3 dilution; top concentration 13.4 µM; 48 h. The method in brief: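 Conditionally reprogrammed GUMC-403 papilloma cells from a patient were plated at 700/well in 5 μL F + Y medium in 1536-well plates and left overnight at 37 °C. A pin tool then added 23 nL of library compounds as an 11-point 1:3 series, for 48 h. CellTiter-Glo luminescence was read on a ViewLux and scaled with vehicle wells set to 100% and empty wells to 0%. Each value gives viability at the highest tested concentration relative to vehicle control.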
`O.O.CCN1CCN(C(=O)N[C@H](C(=O)N[C@H]2[C@@H]3SC\C(=C(/N3C2=O)C(O)=O)CSC4=NN=N[N]4C)C5=CC=C(O)C=C5)C(=O)C1=O`: the viability was found to be 130.

The same experiment, now with this note: library / dose series: MIPE library, 11-point 1:3 dilution; top concentration 46.1 µM; 48 h.
In turn, `CN(C)CCOc1ccc(/C(=C(/CCCl)c2ccccc2)c2ccccc2)cc1` had a viability of 104.
In turn, `Nc1ncnc2nc(-c3ccc(N4CCOCC4)nc3)cc(-c3cccc(Br)c3)c12` returned a viability of 110.
For the compound `COc1cc(C(=O)N2CCC(N3CCN(C)CC3)CC2)ccc1Nc1ncc2c(n1)N(C)c1ccccc1C(=O)N2C`, the viability came out at 78.9.
On to `Cn1cc(/C=C2\C(=O)Nc3cccnc32)c2ccccc21`, for which the viability turned out to be 132.
As for `CCOC(=O)C(C)(C)Oc1ccc(Cl)cc1`, the viability stood at 110.
Compound `CC(C)Cn1cnc2c(N)nc3ccccc3c21` showed a viability of 116.
For `CCOC(=O)c1c(CSc2ccccc2)n(C)c2cc(Br)c(O)c(CN(C)C)c12`, the viability turned out to be 105.
`CCOc1cc(C(=O)Nc2ccc(Cl)c(-c3nc4ccccc4[nH]3)c2)cc(OCC)c1OCC` returned a viability of 90.5.
For the compound `CC(C)C(=O)Nc1ncc(-c2cc(C(F)F)nn2-c2c(Cl)cccc2Cl)s1`, the viability was determined as 90.8.
The compound `Cc1cccc(C)c1OCC(=O)N[C@@H](Cc1ccccc1)[C@@H](O)C[C@H](Cc1ccccc1)NC(=O)[C@H](C(C)C)N1CCCNC1=O` returned a viability of 121.
Compound `CC(C)C(C)/C=C/C(C)C1CCC2C3=CC=C4CC(O)CCC4(C)C3CCC21C` (configuration not stated) showed a viability of 130.
Consider `C[C@]12COC(=O)C[C@@H]1CC[C@@H]1[C@@H]2CC[C@@]2(C)[C@H]1CC[C@]2(C)O`, for which the viability was determined as 108.
Take `CC=CC1=C(C(=O)O)N2C(=O)[C@@H](NC(=O)[C@H](N)c3ccc(O)cc3)[C@H]2SC1.O`: the viability turned out to be 147.
The compound `CCOC(=O)\C1=C\[C@@H](OC(CC)CC)[C@H](NC(C)=O)[C@@H](N)C1` showed a viability of 123.
Same read-out and setting: to `CN1CCc2c(c3ccccc3n2Cc2ccc(C(=O)NO)cc2)C1` belongs 107; to `C#CCC(Cc1cnc2nc(N)nc(N)c2n1)c1ccc(C(=O)N[C@@H](CCC(=O)O)C(=O)O)cc1` (some centres not stated), 95.2; to `NC(=O)c1noc([C@H](CCCC2CCCCC2)CC(=O)NO)n1`, 118.
Compound `CC(C)(C)C1=NC2=C([NH]1)C3=CC=C(F)C=C3C4=C2\C=C/NC4=O` yielded a viability of 133.
`CCOC(=O)c1ncn2c1CN(C)C(=O)c1cc(F)ccc1-2` displayed a viability of 108.
`CN1CCC(CC1)=C2C3=C(C=CC=C3)\C=C/C4=C2C=CC=C4` returned a viability of 111.
On to `Cc1cc2c(F)c(Oc3ncnn4cc(OC[C@@H](C)O)c(C)c34)ccc2[nH]1`, for which the viability was 118.
In the case of `CCOc1cc(/C=C2/C(=O)N(c3ccccc3)N=C2C)cc(Cl)c1OCC(=O)OC`, the viability is 99.2.
On the same count and under the same terms, to `COc1ccc(OC)c(-c2nnc3ccc(-c4ccc(OC)c(O[C@@H]5CCOC5)c4)nn23)c1` belongs 4.61.
`Cc1c(N)nc([C@H](CC(N)=O)NC[C@@H](N)C(N)=O)nc1C(=O)N[C@H](C(=O)N[C@@H](C)[C@H](O)[C@@H](C)C(=O)N[C@@H](C(=O)NCCc1nc(-c2nc(C(=O)NCCC[S+](C)C)cs2)cs1)[C@@H](C)O)C(O[C@H]1O[C@H](CO)[C@H](O)[C@@H](O)[C@H]1O[C@H]1O[C@H](CO)[C@@H](O)[C@H](OC(N)=O)[C@@H]1O)c1c[nH]cn1` (some centres not stated) had a viability of 84.5.
`COc1ccc2c(c[n+](C)c3c4cc5c(cc4ccc23)OCO5)c1OC` came in with a viability of 38.7.
On the same count and under the same terms, to `COc1cc2nc(N3CCN(C(=O)c4ccco4)CC3)nc(N)c2cc1OC` belongs 23.4.
For `CC1=C(C)C(=O)C(C(CCCCCC(=O)O)c2ccccc2)=C(C)C1=O` (configuration not stated), the viability is 110.
The compound `COc1cccc2c1CCCC2CCCN1CCN(C2CCCCC2)CC1` (configuration not stated) had a viability of 112.
Same read-out and setting: to `COC(=O)C[C@](O)(CCCC(C)(C)O)C(=O)O[C@@H]1C(OC)=CC23CCCN2CCc2cc4c(cc2[C@H]13)OCO4` (some centres not stated) belongs 140; to `c1ccc(CNc2nc(NCc3ccccc3)c3ccccc3n2)cc1`, 51.8.
Same read-out and setting: next, `Cc1cccc(-c2nn(C(=S)Nc3ccccc3)cc2-c2ccnc3ccccc23)n1`: 135.
`CO[C@H]1C[C@@H]2CC[C@@H](C)[C@@](O)(O2)C(=O)C(=O)N2CCCC[C@H]2C(=O)O[C@H]([C@H](C)C[C@@H]2CC[C@@H](OP(C)(C)=O)[C@H](OC)C2)CC(=O)[C@H](C)/C=C(\C)[C@@H](O)[C@@H](OC)C(=O)[C@H](C)C[C@H](C)/C=C/C=C/C=C/1C` gave a viability of 104.
In turn, `CC(C)N(CCNC(=O)CN1CCCC1=O)C(C)C` yielded a viability of 103.
The compound `Oc1ccc(/C=C/c2cc(O)cc(O)c2)cc1` gave a viability of 96.3.
Same read-out and setting: next, `Nc1ccc([S+](=O)([O-])Nc2ccccn2)cc1`: 115.
Compound `C=CC(=O)Nc1cccc(Oc2nc(Nc3ccc(N4CCN(C)CC4)cc3)ncc2Cl)c1` had a viability of 26.8.
For `NC[C@H](O)c1ccc(O)c(O)c1`, the viability stood at 113.
`COC(=O)Nc1nc2ccc([S+]([O-])c3ccccc3)cc2[nH]1` (configuration not stated): the viability worked out at 95.4.
Still for that read-out and setting: next, `O=C1NC(=O)/C(=C\c2ccc(-c3ccc(F)cc3)o2)S1`: 106; `Nc1nccc(-c2ccc3noc(-c4ccc(Cl)cc4)c3c2)n1`: 80.1; `CN(CCOc1ccc(NS(C)(=O)=O)cc1)CCc1ccc(NS(C)(=O)=O)cc1`: 127.
Consider `CC(Cc1ccc(O)c(O)c1)(NN)C(=O)O` (configuration not stated), for which the viability amounted to 96.
With `C[C@@H]1CC[C@@]2(OC1)O[C@H]3C[C@H]4[C@@H]5C/C=C6/C[C@H](CC[C@]6(C)[C@H]5CC[C@]4(C)[C@H]3[C@@H]2C)O[C@@H]7O[C@H](CO)[C@@H](O[C@@H]8O[C@@H](C)[C@H](O)[C@@H](O)[C@H]8O)[C@H](O)[C@H]7O[C@@H]9O[C@@H](C)[C@H](O)[C@@H](O)[C@H]9O`, the viability came out at 112.
With `CC1(N2CCC(n3c([C@@H]4CCCNC4)nc4ccccc43)CC2)CCCCCCC1`, the viability was 115.
Consider `CN(C)c1cc(NC(=O)CNC(C)(C)C)c(O)c2c1C[C@H]1C[C@H]3[C@H](N(C)C)C(O)=C(C(N)=O)C(=O)[C@@]3(O)C(O)=C1C2=O`, for which the viability worked out at 110.
`OC[C@H]1O[C@@H](O[C@@H]2[C@@H](CO)O[C@](O)(CO)[C@H]2O)[C@H](O)[C@@H](O)[C@H]1O` had a viability of 95.3.
Still for that read-out and setting: next, `Cc1ccc2c(c1)c1c(n2CCc2ccc(C)nc2)CCN(C)C1`: 108.
As for `CC[C@]12CC[C@H]3[C@@H](CCC/4=C/C(=O)CC[C@H]34)[C@@H]1CC[C@@]2(O)C#C`, the viability was 93.2.
Take `CCC(=O)NC[C@H](Cc1ccc(OCCc2nc(-c3ccccc3)oc2C)cc1)N/C(C)=C\C(=O)c1ccc(C(F)(F)F)cc1`: the viability is 109.
The compound `Nc1ncnc2c1nc(Cl)n2[C@@H]1O[C@H](CO)[C@@H](O)[C@H]1O` came in with a viability of 46.
Same read-out and setting: next, `CCCCCNC(=O)N1CCC(CN(Cc2ccc(Cl)cc2)Cc2ccc([N+](=O)[O-])s2)C1` (configuration not stated): 83.4; `OC(=O)C/1=C/C(=O)NC(=O)N1`: 122; `CC(NCCc1ccc(O)cc1)C(O)c1ccc(O)cc1` (configuration not stated): 124.
`CCC(=O)N1CCN(CC1)C2=C(C=C(C=C2)N3C(=O)\C=C/C4=C3C5=CC(=CC=C5N=C4)C6=CN=C7C=CC=CC7=C6)C(F)(F)F` registered a viability of 73.8.
The compound `C/C(=C\c1csc(C)n1)[C@@H]1C[C@@H]2O[C@@H]2CCC[C@H](C)[C@H](O)[C@@H](C)C(=O)C(C)(C)[C@@H](O)CC(=O)O1` came in with a viability of 114.
Take `CN1c2ccccc2C(=O)N2CCc3c([nH]c4ccccc34)C21` (configuration not stated): the viability was found to be 102.
In the case of `COc1ccc2c(c1)CC[C@@H](CN(C)CC(=O)O)[C@H]2c1ccccc1`, the viability turned out to be 78.3.
The compound `CC(C)(Cc1ccc2ccccc2c1)NC[C@@H](O)COc1cccc(Cl)c1C#N` yielded a viability of 106.
Compound `C[N+]1(C)[C@@H]2C[C@@H](OC(=O)[C@H](CO)c3ccccc3)C[C@H]1[C@@H]1O[C@@H]12.[Br-]` gave a viability of 120.
With `CCc1cc(C(N)=S)ccn1`, the viability was determined as 120.
The compound `Cc1cncc2cccc([S+](=O)([O-])N3CCCN(C(=O)CN)C[C@@H]3C)c12` returned a viability of 138.
Compound `O=C(O)c1ccc2c(c1)nc(Nc1cccc(Cl)c1)c1ccncc12` registered a viability of 88.1.
In the case of `NC/1=N/C(=O)C2=C(N1)[N](C=N2)[C@@H]3C[C@H](O)[C@@H](CO)C3=C`, the viability is 100.
Compound `COc1cc2nccc(Oc3ccc(NC(=O)NC4CC4)c(Cl)c3)c2cc1C(N)=O` returned a viability of 89.9.
Regarding `COC(=O)[C@H](Cc1ccccc1)NC(=O)[C@@H](N)CC(=O)O`, the viability stood at 102.
The same measure, in the same setting: to `Cc1ccc([S+](=O)([O-])Nc2cc(Cl)ccc2C(=O)Nc2nc(-c3ccccc3)cs2)cc1` belongs 104; to `CN[C@H]1CCC2=CC(=C(OC)C(=C2C/3=C/C=C(OC)\C(=O)/C=C13)OC)OC`, 100.
In turn, `O=C1Nc2ccccc2/C1=C1\Nc2ccccc2C1=O` came in with a viability of 104.
On to `Fc1ccc(CNc2ncnc3ccc(F)cc23)cc1`, for which the viability amounted to 80.4.
Same read-out and setting: next, `COc1ccc2c(c1OC)C(=O)O[C@H]2[C@H]1c2c(cc3c(c2OC)OCO3)CCN1C`: 103.

The same experiment, now with this note: library / dose series: MIPE library, 11-point 1:3 dilution; top concentration 92.2 µM; 48 h.
`C[Se]CCC(N)C(=O)O` (configuration not stated) came in with a viability of 98.
